Experimental findings from US20240368583A1, “DNA CONSTRUCTS, RECOMBINANT CELLS COMPRISING THEREOF, BACTERIAL PROBES, METHODS FOR THEIR PREPARATION, AND METHOD OF USING THEREOF” (YEDA RESEARCH AND DEVELOPMENT CO. LTD., priority 2019, published 2024) are described below.

Series [1] relates to E. coli expressing His-OmpC. Kind of series: Treatment of the modified bacteria with EDTA. In kind it is cell-based. The following applies: 10 mM EDTA, 1 h. How it is done: Bacterial samples decorated with Compound 100 were incubated with various concentrations of EDTA (0, 5, 10 mM) for 1 h. Cells were then collected (6,000 g, 4 min) and washed twice with […] PBS buffer. Cells were resuspended in 100 μl PBS buffer and added to poly-1-lysine-coated slides for imaging.

For series [2], the system named is E. coli expressing His-OmpC. Kind of series: Decorating bacteria with the oligonucleotides, fluorescence imaging. In kind it is cell-based. The protocol: (§1) E. coli K-12 strain KRX (Promega) was used for protein expression. Transformed bacteria with the different OmpC constructs (OmpC or His-OmpC) were cultured to saturation in LB medium supplemented with 100 μg/ml of ampicillin at 30° C. 40 μl of the pre-cultured cells were then diluted into 4 ml of fresh LB medium supplemented with ampicillin, and incubated until the OD600 reaches ˜0.6. Protein expression was then induced by the addition of 0.1% Rhamnose and 20 μM isopropyl-b-D-1-thiogalactopyranoside (IPTG) and cultures were allowed to grow at 30° C. for 18 h. Then, the bacterial cells were harvested by centrifugation at 6,000 g for 4 min.
The bacterial cells (OmpC or His-OmpC) were collected by centrifugation at 6000 g for 4 min. The pellet was washed twice with PBS×1 buffer and resuspended in the same buffer to an OD600 of 0.3. […] Then the bacterial sample were washed twice with PBS, resuspended in 100 μl PBS and placed on a glass-bottom dish (P35G-1.5-14-C; MatTek) precoated with poly-1-lysine (Sigma Aldrich) and left to adhere for 1 h. Finally, the wells were washed vigorously with PBS three times and imaged using an Olympus IX51 fluorescent microscope. The samples were imaged using 60× or 100× objective lenses.

Series [3] relates to Native bacteria (that lack His-tag). Kind of series: Decorating bacteria with the oligonucleotides, fluorescence imaging (native bacteria control). The following applies: native bacteria lacking His-OmpC; 500 nM with Ni (II). The series is classed as cell-based, E. coli. How it is done:
as §1
The bacterial cells (OmpC or His-OmpC) were collected by centrifugation at 6000 g for 4 min. The pellet was washed twice with PBS×1 buffer and resuspended in the same buffer to an OD600 of 0.3. To a 100 μl sample of the bacteria suspension, a preincubated sample of DNA (500 nM) and NiCl2 (2.5 μM) was added, and the cells were incubated at room temperature for 1 h. Then the bacterial sample were washed twice with PBS, resuspended in 100 μl PBS and placed on a glass-bottom dish (P35G-1.5-14-C; MatTek) precoated with poly-1-lysine (Sigma Aldrich) and left to adhere for 1 h. Finally, the wells were washed vigorously with PBS three times and imaged using an Olympus IX51 fluorescent microscope. The samples were imaged using 60× or 100× objective lenses.

A further series relates to His-tagged bacteria. Kind of series: Super-resolution (STORM) microscopy of decorated bacteria. In kind it is cell-based, E. coli. The following applies: duplex with ODN-1; transverse cut. How it is done: Super-resolution images were collected on a Vutara SR200 STORM (Bruker) microscope based on the single-molecule localization biplane technology. His-tagged bacteria was decorated with ODN-1:Compound 201 duplex according to the procedure described in above. The bacteria were imaged using 647 nm excitation laser and 405 nm activation laser in an imaging buffer composed of 5 mM cysteamine, oxygen scavengers (7 μM glucose oxidase and 56 nM catalase) in 50 mM Tris, 10 mM NaCl and 10% glucose at pH 8.0. Images were recorded using a 60×NA 1.2 water immersion objective (Olympus) and Evolve 512 EMCCD camera (Photometrics) with gain set at 50, frame rate at 50 Hz, and maximal power of 647 and 405 nm lasers set at 6 and 0.05 kW/cm^2, respectively. Total number of frames acquired was 8000. Data was analyzed by the Vutara SRX software.
Methods: Due to the small size of bacteria, super resolution (SR) microscopy was used to visualize E. Coli 's membrane with super resolution (SR). This was achieved by combining ODN-1 with a commercially available ODN-2 (Cy5-ODN-2; Compound 201) bearing a Cy5 dye, which is compatible with stochastic optical reconstruction microscopy (STORM).

Series [4] concerns the target Alexa 647-modified streptavidin (Streptomyces avidinii, UniProt P22629). Kind of series: Bacteria-streptavidin interaction. The series is classed as cell-based. The following applies: duplex with ODN-1 on His-tagged bacteria; Alexa-SA 500 nM, 1 h. The protocol:
His-tagged bacterial cells were decorated with a duplex consisting of ODN-1 and Compound 205 duplex according to a similar procedure described above. For binding with streptavidin, cells were incubated with Alexa-647 streptavidin conjugate (500 nM) in PBS×1 for 1 h, and after washing twice with PBS were imaged by fluorescent microscopy. The fluorescent signal was abolished when bacterial cells were treated with ODN-3 (3 μM) for 1 h. The control experiment was performed similarly using bacteria decorated with a duplex containing ODN-1 and the complementary strand.
Methods: His-tagged E. coli were incubated with an ODN-1 molecule and afterwards with a biotin-ODN-2 molecule (Compound 205). Then, the cells were incubated with an Alexa 647-modified streptavidin (FIG. 5A). To verify specificity, the same experiment was performed with an ODN-2 molecule lacking biotin (FIG. 5A). Cells were then incubated with ODN-3 to detach ODN-2 from the cell membranes.

Series [5] is described as follows: Adhesion of modified bacteria to the solid support. The following applies: duplex with ODN-1 on His-tagged bacteria; 15 min; control unmodified bacteria. The protocol: A solution of (11-mercaptoundecyl)tetra(ethylene glycol)^9 (2 mM in ethanol) were added to the gold coated substrates and incubated for 2 h. After removing the solution, the slides were washed four times with ethanol. Bacteria samples decorated with a duplex consisting of Compound 102 and Compound 207 were washed twice with PBS, resuspended in 100 μl phosphate buffer (pH=3.8), and then incubated on gold surfaces for 15 min. The solution containing bacteria was removed, and the slides were rinsed three times with PBS, and twice with water. Finally, they were imaged using an Olympus IX51 microscope.
Methods: His-tagged bacteria were decorated with a duplex assembled from ODN-1 and HS-ODN-2 (Compound 207), namely, an ODN-2 that is appended with a thiol group. HS is known to have high affinity to gold. In the following step, unmodified His-tagged bacteria and thiol-modified His-tagged bacteria (FIG. 6A) were incubated with a gold substrate that was previously passivated with (11-mercaptoundecyl)tetra(ethylene glycol) to prevent non-specific bacterial adhesion. Gold surfaces were observed after 15 min incubation. Cells were then incubated with ODN-3 to detach Compound 207 from bacteria membranes.

Another series has as its system MDA-MB-435 cells. Kind of series: Fluorescence imaging of bacteria-cell interaction, MDA-MB-435 cells. In kind it is cell-based, human. To be noted: bacteria linked to duplex with Compound 105; 20 min, washed. How it is done:
(§2) Cells (15,000 cells/well) were seeded onto glass bottom culture dishes (MatTek) and allowed to adhere overnight. MDA-MB-435 cells were seeded in MEM medium supplemented with 5% charcoal dextran-stripped calf serum, 1% non-essential amino acids, 1% L-glutamine, and 1% penicillin/streptomycin. KB cells were plated in folate-depleted RPMI supplemented with 10% FBS and 1% penicillin/streptomycin while LNCaP were maintained in RPMI, 10% FBS, 1% L-glutamine, and 1% penicillin/streptomycin. Following day, medium was removed, rinsed thrice with PBS and then the cells were incubated with B-probes 1-4 (prepared by incubating His-bacteria with duplexes 1-4 at 500 nM concentration for 1 h at 25° C. followed by washing with PBS buffer) at 37° C., 5% CO2 in incubator for 20 min. Finally, the excess/unbound bacteria were gently washed off with PBS containing Ca^+2 and Mg^+2 (200 μL×3) and the cells were imaged using a fluorescence microscope with 60× objective lens. […]
(§3) MDA-MB-435 cells, LNCaP and KB cells were maintained in their respective media as mentioned in the previous section. […] After 20 minutes, the unbound bacteria were gently washed off with PBS containing Ca^+2 and Mg^+2 (200 μL×3) and the cells were imaged using a fluorescence microscope and a 60× objective lens.

In the next series the test system is LNCaP cells. Kind of series: Fluorescence imaging of bacteria-cell interaction, LNCaP cells. The series is classed as cell-based, human. To be noted: bacteria linked to duplex with Compound 105; 20 min, washed. How it is done:
as §2, §3

Sequence of Alexa 647-modified streptavidin (P22629 25-183): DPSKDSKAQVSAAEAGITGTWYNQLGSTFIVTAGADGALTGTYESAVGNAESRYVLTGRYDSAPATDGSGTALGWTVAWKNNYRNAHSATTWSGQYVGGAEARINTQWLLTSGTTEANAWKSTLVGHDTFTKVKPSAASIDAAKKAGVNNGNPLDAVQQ

On to “Compound 100: X-ODN-1 with tri-NTA His-tag binder, appended with a Cy5 dye; ODN sequence SEQ ID NO. 1 (GCGGCGAGGCAGC; DNA, backbone and methylation of C not given here; Cy5 dye and tri-NTA His-tag binder attached)”, for which, in series [1], the “removal from the cell surface by EDTA” value is “completely removed”. Besides, the “fluorescent decoration of bacteria” value in series [2] (500 nM in the absence of nickel ions) was “No fluorescence”; in series [2] (500 nM with Ni (II)), “successfully decorated”; in series [3], “No fluorescence”.
On to “Compound 201: commercially available ODN-2 bearing a Cy5 dye; SEQ ID NO. 6 (TAGGATCAGGCAGCTATGACGTGAC; DNA, backbone and methylation of C not given here; Cy5 dye attached, commercially available)”, for which, in the series with His-tagged bacteria, the “localisation of the label on bacteria (STORM)” value is on record as “only the outer membrane of the bacteria is labeled”.
For the substance “Compound 205: biotin-ODN-2 molecule; SEQ ID NO. 6 (TAGGATCAGGCAGCTATGACGTGAC; DNA, backbone and methylation of C not given here; biotin attached)”, the “fluorescence of decorated bacteria after incubation with Alexa 647-modified streptavidin” value in series [4] is reported as “became fluorescent”.
As to “Compound 207: ODN-2 that is appended with a thiol group; SEQ ID NO. 6 (TAGGATCAGGCAGCTATGACGTGAC; DNA, backbone and methylation of C not given here; thiol group appended)”, the “attachment of thiol-modified bacteria to the gold substrate compared with the control” value in series [5] is listed as “about 8.5 fold”.
Consider “Compound 220: alkyne modified Cy5-labeled ODN2 lacking the CSP binder; SEQ ID NO. 6 (DNA TAGGATCAGGCAGCTATGACGTGAC; DNA, backbone not given here; Cy5 label and alkyne modification, further chemistry not fully specified)”, for which the “fluorescent labeling of MDA-MB-435 cells” value in the series with MDA-MB-435 cells was “no labeling was achieved”.
As to “Compound 230: alkyne modified FAM-labeled ODN2 lacking the CSP binder; SEQ ID NO. 6 (DNA TAGGATCAGGCAGCTATGACGTGAC; DNA, backbone not given here; FAM label and alkyne modification, further chemistry not fully specified)”, the “fluorescent labeling of LNCaP cells” value in the series with LNCaP cells is “no labeling was achieved”.
